From US20240384321A1, “Microfluidic chip and use thereof for continuous monitoring of bacterium intended for motion, growth and morphology detection” (National Health Research Institutes, priority 2023, published 2024)

Columns and labels:
E. coli GFP [1] = experiment: Antibiotic susceptibility testing in the microfluidic chip (fluorescence, MIC determination); format: cell-based, Escherichia coli (ATCC 25922 GFP)
Method: Escherichia coli (E. coli) (ATCC 25922 GFP™) was chosen as a model bacterium. Ampicillin and gentamicin were chosen as model antibiotic drugs. The operational parameters were optimized to isolate 0 or 1 bacterium in each chamber. For the determination of minimum inhibitory concentration (MIC), fluorescence intensity of the sample was measured via inverted fluorescence microscope at 2 hours intervals, during 6 hours of incubation in a temperature-controlled chamber at 37° C. The time-dependent morpho-structural variabilities of bacterium were characterized by a software. […] 0.25 μg/ml GM inhibits bulky E. coli GFP growth on agar plates and microfluidic chip. On the contrary, 0.1 μg/ml GM inhibits growth of ˜90% E. coli GFP in the microfluidic chip, and resistant subpopulation continue growing after 4 h. The present invention shed light on breakthrough development in bacterial resistance research and rapid drug testing applications. […]
Step 3, The morpho-structural changes and Dynamic phenotypic analysis of bacterium were evaluated by microscopy methods. […] In this and the following examples, E. coli is monitored during the first 6 hours and after 21 hours of incubation at 37° C. inside a temperature-controlled chamber placed on the microscope-stage. […]

E. coli GFP [2] = experiment: Antibiotic susceptibility of bulky bacteria on agar plates (E-test); format: cell-based, Escherichia coli (ATCC 25922 GFP)
Method: Escherichia coli (E. coli) (ATCC 25922 GFP™) was chosen as a model bacterium. Ampicillin and gentamicin were chosen as model antibiotic drugs. The operational parameters were optimized to isolate 0 or 1 bacterium in each chamber. For the determination of minimum inhibitory concentration (MIC), fluorescence intensity of the sample was measured via inverted fluorescence microscope at 2 hours intervals, during 6 hours of incubation in a temperature-controlled chamber at 37° C. The time-dependent morpho-structural variabilities of bacterium were characterized by a software. […] 0.25 μg/ml GM inhibits bulky E. coli GFP growth on agar plates and microfluidic chip. On the contrary, 0.1 μg/ml GM inhibits growth of ˜90% E. coli GFP in the microfluidic chip, and resistant subpopulation continue growing after 4 h. The present invention shed light on breakthrough development in bacterial resistance research and rapid drug testing applications.
The multi-parametric motion-analysis incorporating line length, elongation ratio, circularity, line speed, path speed and intensity are found useful for the identification of resistance and susceptibility of E. coli in 4 hours. […] However, resistant subpopulation continues growing after 4 h.

Substance: gentamicin [GM]
- share of E. coli GFP whose growth is inhibited (E. coli GFP [1]; 0.1 μg/ml GM, resistant subpopulation continues growing after 4 h): ~90%
- concentration that inhibits bulky E. coli GFP growth (MIC) (E. coli GFP [1]; bulky bacteria, 37° C., 6 hours incubation): 0.25 µg/mL
- concentration that inhibits bulky E. coli GFP growth (MIC) (E. coli GFP [2]): 0.25 µg/mL
